The values below come from publication PMC8952231 (Pharmaceutics, 2022).

Where only a bound is given, the exact number is not on record here.

For series [1] the following is noted: cited from earlier work; for food effect: previous studies.
Series [2] in a line: Randomized, open-label, single-dose crossover pharmacokinetic study; plasma concentrations by LC-MS/MS, non-compartmental analysis. Type of series: in vivo, human. The note with it: for Intra-Participant CV% of AUCinf / Intra-Participant CV% of AUClast / Intra-Participant CV% of Cmax: IC vs. FCDP crossover; for AUC(0-inf) / AUC(0-t) / Cmax / Tmax / half-life: male, human, plasma. An excerpt: Sixty-three healthy male volunteers (age, 19–45 years; body weight > 50 kg) agreed to participate in the study and signed a written informed consent form. Only male participants were recruited to avoid the potential risk of pregnancy. The participants were considered healthy after a detailed physical examination by physicians involving 12-lead electrocardiographs (ECG), vital sign assessments, and laboratory evaluations, including blood chemistry, hematology, and urinalysis. […] The study protocol was approved (IRB No.2019AN0538, clinicaltrial.gov; NCT05066516) by the Institutional Review Board of Anam Hospital, Korea University Medical Center (Seoul, Korea), and all procedures were conducted following the principles described in the Declaration of Helsinki and Good Clinical Practice guidelines.
This study was conducted as a randomized, open-label, single-dose crossover study. All participants were randomly allocated to group A (period 1: individual components (ICs), period 2: FCDP) or group B (period 1: FCDP, period 2: ICs). […] All medications were biopharmaceutical classification system (BCS) III drugs with high solubility and low permeability. […] For FCDP, microcrystalline cellulose and copovidone were used as major excipients.
On day 1 (the day of each drug administration), serial blood samples were drawn immediately before (0 h) and 0.25, 0.5, 0.75, 1, 1.5, 2, 2.5, 3, 4, 6, 8, 12, 24, 48, and 72 h after each dosing to assess the pharmacokinetics of each drug. The collected samples were centrifuged (at 1977× g, 4 °C) for 15 min, and the extracted plasma samples were stored frozen at −60 °C until they were analyzed.
For dapagliflozin analysis, 100 µL plasma was added to a glass tube containing an internal standard (10 µL of 1 mg/mL dapagliflozin-d5) and 1 mL methanol. The samples were vigorously vortexed and centrifuged at 10,770× g for 3 min. Next, 100 µL of the upper layer was transferred to a polypropylene tube with 10 µL of internal standard (dapagliflozin-d5, Toronto Research, Toronto, ON, Canada) and 300 µL of acetonitrile. After vigorous vortexing and centrifugation at 2191× g for 1 min, 200 µL of the upper layer was transferred to another polypropylene tube with 200 µL of ammonium acetate (0.1%, w/v). A 20 µL aliquot of the solution was finally injected into the LC–MS/MS system; 0.1% ammonium acetate and methanol were used for the mobile phase. The gradient elution mode was applied (methanol proportion ranging between 57.5% and 90% in 5 min) with a constant flow rate of 0.4 mL/min. Dapagliflozin was quantified using the multiple reaction monitoring (MRM) mode. The produced transitions were m/z 426.47 → 166.84 for dapagliflozin and m/z 431.50 → 166.85 for dapagliflozin-d5. The linear function of dapagliflozin concentration ranged from 1 to 400 ng/mL with regression correlation coefficients of the calibration curves (R) greater than 0.999. The intra-day and inter-day CV values were below 15%. The lower limit of quantification (LLOQ) using this method was 1 ng/mL.
Linagliptin-^13C-d3 (TLC Pharmaceutical Standards Ltd., Newmarket, ON, Canada) was used as the internal standard, and 100 µL of plasma was added to a glass tube containing the internal standard (10 µL of 1 mg/mL linagliptin-^13C-d3) and 1 mL methanol. The samples were vigorously vortexed and centrifuged at 10,770× g for 3 min. Next, 100 µL of the upper layer was transferred to a polypropylene tube with 10 µL of the internal standard and 400 µL of methanol. After vigorous vortexing and centrifugation at 2191× g for 1 min, 100 µL of the upper layer was transferred to another polypropylene tube containing 300 µL of formic acid in distilled water (0.1%, w/v). A 20 µL aliquot of the solution was finally injected into the LC–MS/MS system; 0.1% ammonium formate in distilled water and acetonitrile was used as the mobile phase. […] Linagliptin was quantified using MRM mode. […] The intra-day and inter-day CV values were <15%. The LLOQ with this method was 0.04 ng/mL. […]

Series [3] deals with P-gp. The note with it: cited from earlier work.
Series [4] has as its system cytochrome P450 3A4 enzyme. The following applies: in humans; cited from earlier work.
In series [5] the test system is uridine diphosphate glucuronosyltransferase 1A9. The note with it: cited from earlier work.
Series [6] concerns SGLT2:SGLT1 receptor. The note with it: compared with empagliflozin; cited from earlier work.
[7] abbreviates: IC: co-administered single oral doses of Forxiga 10 mg and Trajenta 5 mg, fasted healthy males, 0 to 72 h, mean ± SD.
Where [8] appears, read: IC: co-administered single oral doses of Forxiga 10 mg and Trajenta 5 mg, fasted healthy males, mean ± SD.
Setting [9] is: IC: co-administered single oral doses of Forxiga 10 mg and Trajenta 5 mg, fasted healthy males, median (range).

Turning to `N#C[C@@H]1C[C@@H]2C[C@@H]2N1C(=O)[C@@H](N)C12CC3CC(CC(O)(C3)C1)C2` [saxagliptin], the “half-life, metabolite” value in series [1] (metabolite of saxagliptin) is 3.1 h.

As a reminder, the AUC(0-inf) is the area under the concentration-time curve extrapolated to infinity. As usually defined, the AUC(0-t) is exposure summed from dosing to a finite time, without extrapolation to infinity. As usually defined, the Cmax is the peak of the concentration-time curve. In general, Tmax refers to the time at which the peak concentration occurs. By half-life is commonly meant the time needed for the level to fall by half in the phase considered. On to `CC#CCn1c(N2CCC[C@@H](N)C2)nc2c1c(=O)n(Cc1nc(C)c3ccccc3n1)c(=O)n2C` [linagliptin], for which, in series [2], the “Intra-Participant CV% of AUCinf” value is 12.67%, the “Intra-Participant CV% of AUClast” value is 7.96% and the “Intra-Participant CV% of Cmax” value was found to be 27.58%. In addition, in series [2] (po, 5 mg), the AUC(0-inf) worked out at 268 ± 88 ng·h/mL, the AUC(0-t) stood at 157 ± 35.9 ng·h/mL, the peak level (Cmax) was 4.2 ± 2.01 ng/mL and the Tmax was 1.5 h. Besides, the half-life in series [2] (po, 5 mg) was 54.3 ± 12.3 h. Moreover, the AUC(0-t) in series [2] (setting [7]) was 155 ± 30.4 ng·h/mL. For the same compound, in series [2] (setting [8]), the AUC(0-inf) was 266 ± 78.7 ng·h/mL, the Cmax is 3.95 ± 1.42 ng/mL and the half-life is 54.9 ± 13.6 h. Also, in series [2] (setting [9]), the Tmax amounted to 2.5 h. Besides, in series [3] (at the therapeutic levels), the P-gp inhibition result is reported as “does not inhibit P-gp”. The “Km of P-gp associated transport” value in series [3] was 187 µM. The “substrate for P-glycoprotein (P-gp)” value in series [3] (in humans) was “known substrate”. Further, the “substrate for cytochrome P450 3A4 enzyme” value in series [4] is reported as “known substrate”. Further, in series [1], the oral bioavailability entry is reported as “approximately 30%” and the food effect result is given as “no possible food effect”. Further, in series [1] (human, in vivo), the kidney excretion is listed as 5%. Also, the “time to reach steady-state level” value in series [1] (therapeutic dose (5 mg)) is reported as ≤ 4 days.

By CL/F is commonly meant clearance divided by bioavailability, as obtained after extravascular dosing. The compound `CCOc1ccc(Cc2cc([C@@H]3O[C@H](CO)[C@@H](O)[C@H](O)[C@H]3O)ccc2Cl)cc1` [dapagliflozin] had a CL/F in series [2] (FCDP: single oral dose IN-C009 (dapagliflozin 10 mg/linagliptin 5 mg), fasted healthy males, mean ± SD) of 20.01 ± 3.6 L/h. Further, in series [2], the “Intra-Participant CV% of AUCinf” value was determined as 7.35%, the “Intra-Participant CV% of AUClast” value came to 7.91% and the “Intra-Participant CV% of Cmax” value amounted to 20.49%. In series [2] (setting [8]), the CL/F worked out at 20.67 ± 3.89 L/h, the AUC(0-inf) worked out at 500 ± 93.9 ng·h/mL, the Cmax came out at 161 ± 42 ng/mL and the half-life is 11.3 ± 3.39 h. In series [2] (po, 5 mg), the AUC(0-inf) was found to be 516 ± 98.3 ng·h/mL, the AUC(0-t) is 466 ± 99.3 ng·h/mL, the concentration peaked (Cmax) at 168 ± 42.1 ng/mL and the Tmax worked out at 0.75 h. For the same compound, the half-life in series [2] (po, 5 mg) is 12.8 ± 3.84 h. Besides, the AUC(0-t) in series [2] (setting [7]) turned out to be 456 ± 92.8 ng·h/mL. Besides, the Tmax in series [2] (setting [9]) is 0.75 h. In series [3] (in vitro studies), the P-gp inhibitor status result is on record as “not an inhibitor” and the P-gp substrate status result is reported as “weak substrate”. Also, in series [1], the “half-life (t1/2)” value was 8.1 to 12.2 h and the food effect result is “no possible food effect”. For the same compound, the “fraction metabolized by uridine diphosphate glucuronosyltransferase 1A9” value in series [5] was “approximately 65%”. In series [6], the “SGLT2:SGLT1 receptor selectivity” value is “lower SGLT2:SGLT1 receptor selectivity”.
